Data on 1 substance can be found in US8945540B2, “Compositions for enhancing the antibacterial activity of myeloperoxidase and methods of use thereof” (Exoxemis, Inc., priority 2008, dated 2015).

Common to all, as to test: MIC, modified CLSI broth microdilution
(Dilution methods test growth across graded concentrations, often in twofold steps.)

The test system of one experiment is Citrobacter freundii. The class given is cell-based. The following applies: 20 clinical isolates.
A further experiment relates to Enterobacter cloacae. The class given is cell-based. The following applies: 21 clinical isolates.
A further experiment relates to E. coli. The class given is cell-based, Escherichia coli. The text has this: All clinical isolates were obtained from the culture collection of Eurofins Medinet Anti-Infective Services (Herndon, Va.), and represent diverse geographical regions. They were originally derived from clinical specimens and identified using standard microbiological methods (see Table 33 below for details). Escherichia coli ATCC 25922, Staphylococcus aureus ATCC 25923, S. aureus ATCC 29213, Pseudomonas aeruginosa ATCC 27853, and Enterococcus faecalis ATCC 29212 were used as quality control strains for the Enhanced MPO Solution and comparator agents to validate the modified Clinical and Laboratory Standards Institute (CLSI, formally NCCLS) broth microdilution method.
Modifications were made to the standard broth microdilution method to accommodate the rapid in vitro activity of the Enhanced MPO Solution as described below. Each antimicrobial agent and Concentrate solution was diluted in double strength cation-adjusted Mueller-Hinton Broth (CAMHB) and dispensed in mircrodilution trays. All β-hemolytic streptococci were tested in double strength CAMHB supplemented with 5% lysed horse blood. Isolates were prepared by suspending several colonies (four to six) from an overnight culture on Trypticase Soy Agar (TSA) with 5% sheep blood into sterile saline and the density adjusted to a 0.5 McFarland standard (˜10^8 CFU/ml). Standardized bacterial suspensions were further diluted in double strength Diluent solution so that approximately 5×10^5 CFU/ml was mixed with serial drug dilutions. The addition of Diluent solution to the Concentrate solution activates the enzyme system, which in turn exerts its rapid mode of action. The microdilution trays were incubated in ambient air at 35° C. for 18 to 24 h.
MIC ranges were established for the Enhanced MPO Solution by testing over 20 replicates of one lot of the Enhanced MPO Solution against S. aureus ATCC 29213 and E. coli ATCC 25922. Quality control parameters were then determined for the Enhanced MPO Solution by testing three lots of the Concentrate solution used for preparation of the final Enhanced MPO Solution formulation. Testing was performed in duplicate against S. aureus ATCC 29213 and E. coli ATCC 25922. The effects of modifying the standard broth microdilution test were also assessed with antibiotics with known quality control limits to validate the CLSI broth microdilution method.

Another experiment deals with Klebsiella pneumoniae. The class given is cell-based. Particulars: 31 clinical isolates.
The test system of the next experiment is Proteus mirabilis. It is filed as cell-based. The following applies: 24 clinical isolates.
The subject of the next experiment is Acinetobacter species. It is filed as cell-based. The following applies: Acintobacter spp., 29 clinical isolates.
A further experiment concerns P. aeruginosa. It is filed as cell-based. Particulars: Pseudomonas aeruginosa, 53 clinical isolates.
The test system of a further experiment is Aeromonas hydrophilia. It is filed as cell-based. Particulars: 5 clinical isolates, range for all strains tested.
Another experiment deals with Pasteurella multocida. It is filed as cell-based. Particulars: 5 clinical isolates, range for all strains tested.
Setting [1] is: Escherichia coli, 52 clinical isolates.

From the text for Acinetobacter species: (§1) All clinical isolates were obtained from the culture collection of Eurofins Medinet Anti-Infective Services (Herndon, Va.), and represent diverse geographical regions. […] Escherichia coli ATCC 25922, Staphylococcus aureus ATCC 25923, S. aureus ATCC 29213, Pseudomonas aeruginosa ATCC 27853, and Enterococcus faecalis ATCC 29212 were used as quality control strains for the Enhanced MPO Solution and comparator agents to validate the modified Clinical and Laboratory Standards Institute (CLSI, formally NCCLS) broth microdilution method.
(§2) Modifications were made to the standard broth microdilution method to accommodate the rapid in vitro activity of the Enhanced MPO Solution as described below. Each antimicrobial agent and Concentrate solution was diluted in double strength cation-adjusted Mueller-Hinton Broth (CAMHB) and dispensed in mircrodilution trays. All β-hemolytic streptococci were tested in double strength CAMHB supplemented with 5% lysed horse blood. Isolates were prepared by suspending several colonies (four to six) from an overnight culture on Trypticase Soy Agar (TSA) with 5% sheep blood into sterile saline and the density adjusted to a 0.5 McFarland standard (˜10^8 CFU/ml). Standardized bacterial suspensions were further diluted in double strength Diluent solution so that approximately 5×10^5 CFU/ml was mixed with serial drug dilutions. […]
Method for Aeromonas hydrophilia: (§3) Modifications were made to the standard broth microdilution method to accommodate the rapid in vitro activity of the Enhanced MPO Solution as described below. Each antimicrobial agent and Concentrate solution was diluted in double strength cation-adjusted Mueller-Hinton Broth (CAMHB) and dispensed in mircrodilution trays. All β-hemolytic streptococci were tested in double strength CAMHB supplemented with 5% lysed horse blood. Isolates were prepared by suspending several colonies (four to six) from an overnight culture on Trypticase Soy Agar (TSA) with 5% sheep blood into sterile saline and the density adjusted to a 0.5 McFarland standard (˜10^8 CFU/ml). Standardized bacterial suspensions were further diluted in double strength Diluent solution so that approximately 5×10^5 CFU/ml was mixed with serial drug dilutions. […] The microdilution trays were incubated in ambient air at 35° C. for 18 to 24 h.
From the text for Citrobacter freundii: as §1, §2
From the text for Enterobacter cloacae: as §1, §2
From the text for Klebsiella pneumoniae: as §1, §2
Method for P. aeruginosa: as §3
Method for Pasteurella multocida: as §3
From the text for Proteus mirabilis: as §1, §2

As for gentamicin, the “MIC 50%” value amounted to 2 µg/mL in the experiment on Citrobacter freundii; 2 µg/mL in the experiment on Enterobacter cloacae; 4 µg/mL against E. coli (setting [1]); 4 µg/mL in the experiment with Klebsiella pneumoniae; 8 µg/mL in the experiment on Proteus mirabilis; 8 µg/mL in the experiment with Acinetobacter species. In the experiment on P. aeruginosa, the “MIC 50%” value turned out to be 4 µg/mL. Moreover, the “MIC 90%” value in the experiment with Citrobacter freundii was 4 µg/mL; against Enterobacter cloacae, 8 µg/mL; in the experiment on E. coli (setting [1]), above 32 µg/mL; in the experiment on Klebsiella pneumoniae it was above 32 µg/mL; against Proteus mirabilis, 8 µg/mL; against Acinetobacter species, above 32 µg/mL. Also, the “MIC 90%” value with P. aeruginosa came to 16 µg/mL. The “MIC by the modified method versus published quality control ranges” value with E. coli (E. coli ATCC 25922, inoculum prepared in Diluent solution) is “within previously published quality control ranges”. In addition, the results for the “MIC Range” value in the experiment on Aeromonas hydrophilia and against Pasteurella multocida were 1 to 4 µg/mL and 2 to 16 µg/mL, respectively.
